Results on 7 compounds are retold here after ChEMBL document CHEMBL5303573, “Mapping human microbiome drug metabolism by gut bacteria and their genes” (Nature, 2019).

Series [1] in a line: The drug is tested on Eggerthella lenta strain: ATCC25559 for biotransformation. The drug concentrations were measured before and after a 12-h incubation by liquid-chromatography-coupled mass spectrometry (LC–MS). The settings on record: 2 µM.
The nature of series [2]: The drug is tested on Bacteroides dorei strain: DSM17855 for biotransformation. The drug concentrations were measured before and after a 12-h incubation by liquid-chromatography-coupled mass spectrometry (LC–MS). The settings on record: phocaeicola dorei, 2 µM.
Series [3] can be described thus: The drug is tested on Bacteroides ovatus strain: ATCC8483 for biotransformation. The drug concentrations were measured before and after a 12-h incubation by liquid-chromatography-coupled mass spectrometry (LC–MS). Particulars: 2 µM.
The nature of series [4]: The drug is tested on Bacteroides pectinophilus strain: ATCC43243 for biotransformation. The drug concentrations were measured before and after a 12-h incubation by liquid-chromatography-coupled mass spectrometry (LC–MS). Particulars: 2 µM.
The nature of series [5]: The drug is tested on Bacteroides uniformis strain: ATCC8492 for biotransformation. The drug concentrations were measured before and after a 12-h incubation by liquid-chromatography-coupled mass spectrometry (LC–MS). Particulars: 2 µM.
The nature of series [6]: The drug is tested on Anaerotruncus colihominis strain: DSM17241 for biotransformation. The drug concentrations were measured before and after a 12-h incubation by liquid-chromatography-coupled mass spectrometry (LC–MS). Particulars: 2 µM.
Series [7] can be described thus: The drug is tested on Clostridium sp. strain: fecal isolate for biotransformation. The drug concentrations were measured before and after a 12-h incubation by liquid-chromatography-coupled mass spectrometry (LC–MS). The settings on record: 2 µM.
Series [8] can be described thus: The drug is tested on Clostridium scindens strain: ATCC35704 for biotransformation. The drug concentrations were measured before and after a 12-h incubation by liquid-chromatography-coupled mass spectrometry (LC–MS). Particulars: 2 µM.
Series [9] is described as follows: The drug is tested on Dorea formicigenerans strain: ATCC27755 for biotransformation. The drug concentrations were measured before and after a 12-h incubation by liquid-chromatography-coupled mass spectrometry (LC–MS). The settings on record: 2 µM.
The nature of series [10]: The drug is tested on Enterococcus faecalis strain: V583 for biotransformation. The drug concentrations were measured before and after a 12-h incubation by liquid-chromatography-coupled mass spectrometry (LC–MS). Particulars: 2 µM.
A short description of series [11]: The drug is tested on Ruminococcus gnavus strain: ATCC29149 for biotransformation. The drug concentrations were measured before and after a 12-h incubation by liquid-chromatography-coupled mass spectrometry (LC–MS). The settings on record: mediterraneibacter gnavus, 2 µM.
Series [12] is described as follows: The drug is tested on Ruminococcus torques strain: ATCC27756 for biotransformation. The drug concentrations were measured before and after a 12-h incubation by liquid-chromatography-coupled mass spectrometry (LC–MS). It counts as ADME. Also on record: dose 2 uM, timepoint 0 vs 12 hours. The settings on record: 2 µM.
Series [13] in a line: The drug is tested on Subdoligranulum variabile strain: DSM15176 for biotransformation. The drug concentrations were measured before and after a 12-h incubation by liquid-chromatography-coupled mass spectrometry (LC–MS). Particulars: 2 µM.
Series [14] in a line: The drug is tested on Enterobacter cancerogenus strain: ATCC35316 for biotransformation. The drug concentrations were measured before and after a 12-h incubation by liquid-chromatography-coupled mass spectrometry (LC–MS). The settings on record: 2 µM.
Series [15] in a line: The drug is tested on Escherichia coli strain: BW25113 for biotransformation. The drug concentrations were measured before and after a 12-h incubation by liquid-chromatography-coupled mass spectrometry (LC–MS). The settings on record: 2 µM.
The conditions of series [16]: bifidobacterium adolescentis, 12 h, 2 µM.
Description: The drug is tested on Bifidobacterium adolescentis strain: ATCC 15703 for biotransformation. The drug concentrations were measured before and after a 12-h incubation by liquid-chromatography-coupled mass spectrometry (LC–MS)
The conditions of series [17]: bacteroides eggerthii, 12 h, 2 µM.
Description: The drug is tested on Bacteroides eggerthii strain: DSM20697 for biotransformation. The drug concentrations were measured before and after a 12-h incubation by liquid-chromatography-coupled mass spectrometry (LC–MS)
Series [18] can be described thus: The drug is tested on Providencia rettgeri strain: DSM1131 for biotransformation. The drug concentrations were measured before and after a 12-h incubation by liquid-chromatography-coupled mass spectrometry (LC–MS). It counts as ADME. Also on record: dose 2 uM, timepoint 0 vs 12 hours. Particulars: 2 µM.
A short description of series [19]: The drug is tested on Clostridium asparagiforme strain: DSM15981 for biotransformation. The drug concentrations were measured before and after a 12-h incubation by liquid-chromatography-coupled mass spectrometry (LC–MS). In kind it is ADME. Also on record: dose 2 uM, timepoint 0 vs 12 hours. The settings on record: enterocloster asparagiformis, 2 µM.
Series [20] can be described thus: The drug is tested on Bifidobacterium ruminantium strain: fecal isolate for biotransformation. The drug concentrations were measured before and after a 12-h incubation by liquid-chromatography-coupled mass spectrometry (LC–MS). The settings on record: 2 µM.

The structures appear in SMILES notation.

For `CN1CCN(CC/C=C2/c3ccccc3Sc3ccc(S(=O)(=O)N(C)C)cc32)CC1` [THIOTHIXENE], the “Bacterial Biotransformation” value is given as “Compound NOT metabolized” in [1]; “Compound metabolized” in [2]; “Compound NOT metabolized” in series [3]; “Compound NOT metabolized” in series [4]; “Compound metabolized” in series [5]; “Compound NOT metabolized” in series [6]. Also, the “Bacterial Biotransformation” value was “Compound metabolized” in [7]; “Compound metabolized” in [8]; “Compound NOT metabolized” in series [9]; “Compound NOT metabolized” in series [10]; “Compound NOT metabolized” in series [11]; “Compound NOT metabolized” in series [12]. Further, the “Bacterial Biotransformation” value in series [13] is listed as “Compound NOT metabolized”; in series [14], “Compound metabolized”; in series [15], “Compound NOT metabolized”; in series [16], “Compound NOT metabolized”; in series [17], “Compound metabolized”.
For `CC(C)(C)NCC(O)c1cc(Cl)c(N)c(Cl)c1` (configuration not stated) [CLENBUTEROL], the “Bacterial Biotransformation” value in series [1], in series [2], in [3], in series [4], in [5] and in series [6] was “Compound NOT metabolized” each time. For the same compound, the “Bacterial Biotransformation” value in series [7], in series [8], in [9], in series [10], in series [11] and in series [12] was “Compound NOT metabolized” each time. The “Bacterial Biotransformation” value in series [13], in series [14], in series [15], in [18], in series [16] and in series [17] was “Compound NOT metabolized” each time.
For `Cc1nc2n(c(=O)c1CCN1CCC(c3noc4cc(F)ccc34)CC1)CCCC2` [RISPERIDONE], the “Bacterial Biotransformation” value was “Compound NOT metabolized” in series [3]; “Compound NOT metabolized” in [5]; “Compound metabolized” in [6]; “Compound metabolized” in [19]; “Compound metabolized” in [7]; “Compound metabolized” in series [8]. For the same compound, the “Bacterial Biotransformation” value in series [10] is “Compound metabolized”; in series [11], “Compound metabolized”; in [12] it was “Compound NOT metabolized”; in series [13] it was “Compound metabolized”; in series [14] it was “Compound metabolized”; in series [15] it was “Compound NOT metabolized”. Also, the “Bacterial Biotransformation” value in series [18] and in [16] was “Compound NOT metabolized” throughout.
Turning to `COC(=O)[C@H](c1ccccc1Cl)N1CCc2sccc2C1.O=S(=O)(O)O` [CLOPIDOGREL BISULFATE], the “Bacterial Biotransformation” value in [2] is “Compound metabolized”; in series [3] it was “Compound metabolized”; in series [4], “Compound NOT metabolized”; in [5], “Compound metabolized”; in series [6], “Compound NOT metabolized”; in series [19] it was “Compound NOT metabolized”. In addition, the “Bacterial Biotransformation” value is “Compound metabolized” in [7]; “Compound NOT metabolized” in series [8]; “Compound NOT metabolized” in [9]; “Compound NOT metabolized” in [10]; “Compound NOT metabolized” in [11]; “Compound NOT metabolized” in series [12]. The “Bacterial Biotransformation” value in [13] was “Compound NOT metabolized”; in [14], “Compound NOT metabolized”; in series [15] it was “Compound NOT metabolized”; in series [18], “Compound NOT metabolized”; in series [16] it was “Compound NOT metabolized”; in [17], “Compound metabolized”.
In the case of `CN1CCC(=C2c3ccccc3CCc3cccnc32)CC1.O=C(O)/C=C\C(=O)O.O=C(O)/C=C\C(=O)O` [AZATADINE MALEATE], the “Bacterial Biotransformation” value in [20], in series [3], in [4], in [6], in series [19] and in series [7] was “Compound NOT metabolized” in each case. Also, the “Bacterial Biotransformation” value in series [8], in series [9], in [10], in [11], in [12] and in series [13] was “Compound NOT metabolized” each time. Moreover, the “Bacterial Biotransformation” value in series [14], in series [15], in series [18], in series [16] and in series [17] was “Compound NOT metabolized” each time.
Turning to `CC(=O)SCC(Cc1ccccc1)C(=O)NCC(=O)OCc1ccccc1` (configuration not stated) [RACECADOTRIL], the “Bacterial Biotransformation” value in series [1] was “Compound NOT metabolized”; in series [2], “Compound metabolized”; in [3], “Compound metabolized”; in series [4], “Compound metabolized”; in series [5] it was “Compound metabolized”; in [7], “Compound metabolized”. Besides, the “Bacterial Biotransformation” value in series [11] is reported as “Compound NOT metabolized”; in series [15], “Compound NOT metabolized”; in series [18], “Compound NOT metabolized”; in series [16], “Compound metabolized”.
In the case of `CCOC(=O)[C@H](CCc1ccccc1)N[C@H]1CCc2ccccc2N(CC(=O)O)C1=O` [BENAZEPRIL], the “Bacterial Biotransformation” value in series [20] is given as “Compound NOT metabolized”; in [2], “Compound metabolized”; in series [3], “Compound metabolized”; in series [4], “Compound NOT metabolized”; in series [5] it was “Compound metabolized”; in [6], “Compound NOT metabolized”. Further, the “Bacterial Biotransformation” value in series [19] was “Compound metabolized”; in [7] it was “Compound NOT metabolized”; in series [8], “Compound NOT metabolized”; in [9], “Compound NOT metabolized”; in [10] it was “Compound metabolized”; in series [11], “Compound NOT metabolized”. Besides, the “Bacterial Biotransformation” value in series [12] was “Compound NOT metabolized”; in series [13] it was “Compound NOT metabolized”; in series [14], “Compound NOT metabolized”; in [15], “Compound NOT metabolized”; in series [16], “Compound NOT metabolized”; in [17], “Compound metabolized”.
